Results: US8952024B2, “Herbicidal pyrimidone derivatives” (E I du Pont de Nemours and Company, priority 2009, dated 2015)

Experiments:
Format in all cases: in vivo
Conditions in all cases: Postemergence
[1] = tested on: windgrass (Apera spica-venti); experiment: Test B postemergence plant response
From the text: (§1) At the same time, plants selected from these crop and weed species and also winter barley (Hordeum vulgare), canarygrass (Phalaris minor), chickweed (Stellaria media) and windgrass (Apera spica-venti) were planted in pots containing Redi-Earth® planting medium (Scotts Company, 14111 Scottslawn Road, Marysville, Ohio 43041) comprising spaghnum peat moss, vermiculite, wetting agent and starter nutrients and treated with postemergence applications of some of the test chemicals formulated in the same manner. Plants ranged in height from 2 to 18 cm (1- to 4-leaf stage) for postemergence treatments.
(§2) Treated plants and controls were maintained in a greenhouse for 13 to 15 days, after which time all treated plants were visually evaluated and compared to controls. Plant response ratings, summarized in Table B, are based on a scale of 0 to 100 where 0 is no effect and 100 is complete control. A dash (-) response means no test result.

[2] = tested on: winter barley (Hordeum vulgare); experiment: Test B postemergence plant response
From the text: as §1, §2

[3] = tested on: chickweed (Stellaria media); experiment: Test B postemergence plant response
From the text: as §1, §2

[4] = tested on: canarygrass (Phalaris minor); experiment: Test B postemergence plant response
From the text: as §1, §2

[5] = tested on: blackgrass (Alopecurus myosuroides); experiment: Test B pre-/postemergence plant response
From the text: (§3) Seeds of plant species selected from blackgrass (Alopecurus myosuroides), downy bromegrass (Bromus tectorum), green foxtail (Setaria viridis), Italian ryegrass (Lolium multiflorum), wheat (Triticum aestivum), wild oat (Avena fatua), deadnettle (henbit deadnettle, Lamium amplexicaule), galium (catchweed bedstraw, Galium aparine), bermudagrass (Cynodon dactylon), Surinam grass (Brachiaria decumbens), cocklebur (Xanthium strumarium), corn (Zea mays), large crabgrass (Digitaria sanguinalis), woolly cupgrass (Eriochloa villosa), giant foxtail (Setaria faberii), goosegrass (Eleusine indica), johnsongrass (Sorghum halepense), kochia (Kochia scoparia), lambsquarters (Chenopodium album), morningglory (Ipomoea coccinea), nightshade (eastern black nightshade, Solanum ptycanthum), yellow nutsedge (Cyperus esculentus), pigweed (Amaranthus retroflexus), ragweed (common ragweed, Ambrosia elatior), Russian thistle (Salsola kali), soybean (Glycine max), sunflower (common oilseed sunflower, Helianthus annuus) and velvetleaf (Abutilon theophrasti) were planted into a blend of loam soil and sand and treated preemergence with test compounds formulated in a non-phytotoxic solvent mixture which included a surfactant.
as §1, §2

wild oat (Avena fatua) = experiment: Test B pre-/postemergence plant response
From the text: as §3, §1, §2

corn (Zea mays) = experiment: Test B pre-/postemergence plant response
From the text: as §3, §1, §2

soybean (Glycine max) = experiment: Test B pre-/postemergence plant response
From the text: as §3, §1, §2

[6] = tested on: johnsongrass (Sorghum halepense); experiment: Test B pre-/postemergence plant response
From the text: as §3, §1, §2

[7] = tested on: giant foxtail (Setaria faberii); experiment: Test B pre-/postemergence plant response
From the text: as §3, §1, §2

kochia (Kochia scoparia) = experiment: Test B pre-/postemergence plant response
From the text: as §3, §1, §2

[8] = tested on: bermudagrass (Cynodon dactylon); experiment: Test B pre-/postemergence plant response
From the text: as §3, §1, §2

[9] = tested on: morningglory (Ipomoea coccinea); experiment: Test B pre-/postemergence plant response
From the text: as §3, §1, §2

[10] = 31 g ai/ha, 0 to 100 scale (0 no effect, 100 complete control)
[11] = 62 g ai/ha, scale 0 to 100 (0 no effect, 100 complete control)
[12] = 250 g ai/ha, scale 0 to 100 (0 no effect, 100 complete control), 13 to 15 days
[13] = 125 g ai/ha, scale 0 to 100 (0 no effect, 100 complete control)
[14] = 125 g ai/ha, scale 0 (no effect) to 100 (complete control), 13 to 15 days

COCCn1c(-c2cccc(F)c2)ncc(C(=O)C2=C(O)C3CCC(C3)C2=O)c1=O (stereo not shown) [Compound 235]
Plant response rating, Windgrass [1, 10]: 85
Plant response rating, Windgrass [1, 11]: 95
Plant response rating, Windgrass [1, 12]: 98
Plant response rating, Barley [2, 10]: 0
Plant response rating, Barley [2, 11]: 30
Plant response rating, Barley [2, 13]: 40
Plant response rating, Chickweed [3, 10]: 98
Plant response rating, Chickweed [3, 11]: 100
Plant response rating, Chickweed [3, 13]: 100
Plant response rating, Chickweed [3, 12]: 100
Plant response rating, Canarygrass [4, 10]: 20
Plant response rating, Canarygrass [4, 11]: 30
Plant response rating, Canarygrass [4, 13]: 30
Plant response rating, Canarygrass [4, 12]: 30
Plant response rating, Blackgrass [5, 10]: 45
Plant response rating, Blackgrass [5, 11]: 60
Plant response rating, Blackgrass [5, 13]: 70
Plant response rating, Oat, Wild (wild oat (Avena fatua); [10]): 35
Plant response rating, Oat, Wild (wild oat (Avena fatua); [11]): 50
Plant response rating, Oat, Wild (wild oat (Avena fatua); [12]): 95
Plant response rating, Corn (corn (Zea mays); [10]): 95
Plant response rating, Corn (corn (Zea mays); [11]): 100
Plant response rating, Corn (corn (Zea mays); [13]): 100
Plant response rating, Corn (corn (Zea mays); [12]): 100
Plant response rating, Soybean (soybean (Glycine max); [10]): 98
Plant response rating, Soybean (soybean (Glycine max); [11]): 100
Plant response rating, Soybean (soybean (Glycine max); [12]): 100
Plant response rating, Johnsongrass [6, 10]: 70
Plant response rating, Johnsongrass [6, 11]: 80
Plant response rating, Johnsongrass [6, 13]: 100
Plant response rating, Johnsongrass [6, 12]: 100
Plant response rating, Foxtail, Giant [7, 10]: 98
Plant response rating, Foxtail, Giant [7, 11]: 100
Plant response rating, Foxtail, Giant [7, 13]: 100
Plant response rating, Foxtail, Giant [7, 12]: 100
Plant response rating, Kochia (kochia (Kochia scoparia); [10]): 98
Plant response rating, Kochia (kochia (Kochia scoparia); [11]): 100
Plant response rating, Kochia (kochia (Kochia scoparia); [13]): 100
Plant response rating, Kochia (kochia (Kochia scoparia); [12]): 100
Plant response rating, Bermudagrass [8, 10]: 98
Plant response rating, Bermudagrass [8, 11]: 98
Plant response rating, Bermudagrass [8, 13]: 100
Plant response rating, Bermudagrass [8, 12]: 100
Plant response rating, Morningglory [9, 10]: 95
Plant response rating, Morningglory [9, 11]: 98
Plant response rating, Morningglory [9, 13]: 100
Plant response rating, Morningglory [9, 12]: 100

CCCCn1c(-c2cccc(F)c2)ncc(C(=O)C2=C(O)C3CCC(C3)C2=O)c1=O (stereo not shown) [Compound 237]
Plant response rating, Windgrass [1, 10]: 60
Plant response rating, Windgrass [1, 11]: 90
Plant response rating, Windgrass [1, 14]: 98
Plant response rating, Windgrass [1, 12]: 100
Plant response rating, Barley [2, 10]: 5
Plant response rating, Barley [2, 11]: 15
Plant response rating, Barley [2, 14]: 40
Plant response rating, Barley [2, 12]: 40
Plant response rating, Chickweed [3, 10]: 90
Plant response rating, Chickweed [3, 11]: 98
Plant response rating, Chickweed [3, 14]: 100
Plant response rating, Chickweed [3, 12]: 100
Plant response rating, Canarygrass [4, 10]: 30
Plant response rating, Canarygrass [4, 11]: 40
Plant response rating, Canarygrass [4, 14]: 50
Plant response rating, Canarygrass [4, 12]: 50
Plant response rating, Blackgrass [5, 10]: 50
Plant response rating, Blackgrass [5, 11]: 70
Plant response rating, Blackgrass [5, 14]: 70
Plant response rating, Blackgrass [5, 12]: 80
Plant response rating, Oat, Wild (wild oat (Avena fatua); [10]): 40
Plant response rating, Oat, Wild (wild oat (Avena fatua); [11]): 55
Plant response rating, Oat, Wild (wild oat (Avena fatua); [14]): 60
Plant response rating, Oat, Wild (wild oat (Avena fatua); [12]): 90
Plant response rating, Corn (corn (Zea mays); [10]): 85
Plant response rating, Corn (corn (Zea mays); [11]): 98
Plant response rating, Corn (corn (Zea mays); [14]): 100
Plant response rating, Corn (corn (Zea mays); [12]): 100
Plant response rating, Soybean (soybean (Glycine max); [10]): 95
Plant response rating, Soybean (soybean (Glycine max); [11]): 100
Plant response rating, Soybean (soybean (Glycine max); [14]): 100
Plant response rating, Soybean (soybean (Glycine max); [12]): 100
Plant response rating, Johnsongrass [6, 10]: 100
Plant response rating, Johnsongrass [6, 11]: 100
Plant response rating, Johnsongrass [6, 14]: 100
Plant response rating, Johnsongrass [6, 12]: 100
Plant response rating, Foxtail, Giant [7, 10]: 98
Plant response rating, Foxtail, Giant [7, 11]: 98
Plant response rating, Foxtail, Giant [7, 14]: 98
Plant response rating, Foxtail, Giant [7, 12]: 100
Plant response rating, Kochia (kochia (Kochia scoparia); [10]): 65
Plant response rating, Kochia (kochia (Kochia scoparia); [11]): 80
Plant response rating, Kochia (kochia (Kochia scoparia); [14]): 100
Plant response rating, Kochia (kochia (Kochia scoparia); [12]): 100
Plant response rating, Bermudagrass [8, 10]: 98
Plant response rating, Bermudagrass [8, 11]: 98
Plant response rating, Bermudagrass [8, 14]: 100
Plant response rating, Bermudagrass [8, 12]: 100
Plant response rating, Morningglory [9, 10]: 85
Plant response rating, Morningglory [9, 11]: 95
Plant response rating, Morningglory [9, 14]: 100
Plant response rating, Morningglory [9, 12]: 100

COCCCn1c(-c2cccc(F)c2)ncc(C(=O)C2=C(O)C3CCC(C3)C2=O)c1=O (stereo not shown) [Compound 238]
Plant response rating, Windgrass [1, 10]: 45
Plant response rating, Windgrass [1, 11]: 70
Plant response rating, Windgrass [1, 14]: 85
Plant response rating, Windgrass [1, 12]: 95
Plant response rating, Barley [2, 10]: 10
Plant response rating, Barley [2, 11]: 30
Plant response rating, Barley [2, 14]: 35
Plant response rating, Barley [2, 12]: 40
Plant response rating, Chickweed [3, 10]: 80
Plant response rating, Chickweed [3, 11]: 90
Plant response rating, Chickweed [3, 14]: 100
Plant response rating, Chickweed [3, 12]: 100
Plant response rating, Canarygrass [4, 10]: 20
Plant response rating, Canarygrass [4, 11]: 25
Plant response rating, Canarygrass [4, 14]: 30
Plant response rating, Canarygrass [4, 12]: 30
Plant response rating, Blackgrass [5, 10]: 40
Plant response rating, Blackgrass [5, 11]: 60
Plant response rating, Blackgrass [5, 14]: 60
Plant response rating, Blackgrass [5, 12]: 70
Plant response rating, Oat, Wild (wild oat (Avena fatua); [10]): 30
Plant response rating, Oat, Wild (wild oat (Avena fatua); [11]): 35
Plant response rating, Oat, Wild (wild oat (Avena fatua); [14]): 50
Plant response rating, Oat, Wild (wild oat (Avena fatua); [12]): 60
Plant response rating, Corn (corn (Zea mays); [10]): 80
Plant response rating, Corn (corn (Zea mays); [11]): 80
Plant response rating, Corn (corn (Zea mays); [14]): 95
Plant response rating, Corn (corn (Zea mays); [12]): 95
Plant response rating, Soybean (soybean (Glycine max); [10]): 98
Plant response rating, Soybean (soybean (Glycine max); [11]): 100
Plant response rating, Soybean (soybean (Glycine max); [14]): 100
Plant response rating, Soybean (soybean (Glycine max); [12]): 100
Plant response rating, Johnsongrass [6, 10]: 60
Plant response rating, Johnsongrass [6, 14]: 98
Plant response rating, Johnsongrass [6, 12]: 100
Plant response rating, Foxtail, Giant [7, 10]: 100
Plant response rating, Foxtail, Giant [7, 11]: 100
Plant response rating, Foxtail, Giant [7, 14]: 100
Plant response rating, Foxtail, Giant [7, 12]: 100
Plant response rating, Kochia (kochia (Kochia scoparia); [10]): 90
Plant response rating, Kochia (kochia (Kochia scoparia); [11]): 98
Plant response rating, Kochia (kochia (Kochia scoparia); [14]): 100
Plant response rating, Kochia (kochia (Kochia scoparia); [12]): 100
Plant response rating, Bermudagrass [8, 10]: 95
Plant response rating, Bermudagrass [8, 11]: 98
Plant response rating, Bermudagrass [8, 14]: 100
Plant response rating, Bermudagrass [8, 12]: 100
Plant response rating, Morningglory [9, 14]: 100
Plant response rating, Morningglory [9, 12]: 100
